Measurements taken from US9549930B2, “Combined systemic and topical treatment of disordered and/or prodromal stage tissue” (priority 2013, dated 2017).

How the values were obtained:
[1] = cited from earlier work
[2] = cited from earlier work; remark: listed apart in the source
Herpes Zoster (HZV) = test: Case histories: systemic anti-viral drug alone for shingles; type: in vivo, human
Text: A person with a clinical history of recurrent Herpes Zoster (HZV) (or in layman's terms, shingles) experienced a recurrent outbreak after a stressful week at work and a weekend in the sun following a trip to a tanning booth. (It is known that stress and UV-B can both trigger herpetic outbreaks.) This subject had their first episode with HZV about one year prior. They were diagnosed by their physician and given a prescription for Zovirax (acyclovir). They took the Zovirax, but experienced lesions lasting 3-4 weeks and experienced over 12 weeks of post-herpetic neuralgia. The previous episode included all the classic stages, including weeping, but only involved several very small lesions.
A person was vacationing in California when they developed a red rash and subsequent lesions on their right buttock. They were diagnosed with herpes zoster (shingles) on day 2, after first signs and symptoms were noted, and was prescribed valacyclovir (Valtrex) per label.
As […] to get to their home from California, they and their spouse elected to extend their time in California.
The patient initially went to the doctor in the early stages of the infection when it was only on their leg. The doctor diagnosed the condition as shingles and prescribed the patient Valtrex. […] The bumps were smaller but they kept spreading. The doctor advised them to keep taking the Valtrex. Once the patient finished the first prescription of Valtrex, the doctor provided a second Valtrex prescription. […] The sores remained the same size although the sores on the patient's leg were much larger than on their lower trunk.
A person had shingles on their neck and shoulders. Their sibling is a physician and diagnosed shingles and prescribed a nucleoside drug according to FDA approved labeling. The lesions had started to propagate down the affected dermatomes of the shoulder and neck. The lesions continued to progress despite anti-viral therapy.

[3] = Example 4, person, first HZV episode, Zovirax alone

SMILES: Nc1nc2c(ncn2COCCO)c(=O)[nH]1 [Aciclovir, 9-(2-hydroxyethoxymethyl)guanine]
- solubility in water [1]: poorly soluble in water
- absorption from the gastrointestinal tract ([2]; after oral administration): poorly absorbed
- duration of post-herpetic neuralgia (Herpes Zoster (HZV); [3]): over 12 weeks
- lesions lasting (Herpes Zoster (HZV); [3]): 3-4 weeks

SMILES: CC(C)[C@H](N)C(=O)OCCOCn1cnc2c(=O)[nH]c(N)nc21 [Valtrex]
- bioavailability ([2]; oral administration, shown in U.S. Pat. No. 4,957,924): improved bioavailability
- state on day 18 after first signs, after completed regimen (Herpes Zoster (HZV); Example 6, Valtrex regimen as prescribed): still had open herpetic lesions
- effect on shingles initially (Herpes Zoster (HZV); Example 6, person, Valtrex per label from day 2): little noticeable effect initially
- state of sores after first prescription finished (Herpes Zoster (HZV); Example 8, Valtrex alone): still open and large
- course of lesions shortly after first doses (Herpes Zoster (HZV); Example 8, person, Valtrex alone): the lesions spread up the patient's leg and to their lower trunk
